The values that follow come from PMC3117672 (ChemMedChem, 2010).

For this experiment, the target named is mPTPB (Mycobacterium tuberculosis, UniProt I6WXK4). The conditions noted are these: read-out: IC50 for mPTPB; pH 7.
mPTPB, sequence (I6WXK4 whole entry, looked up): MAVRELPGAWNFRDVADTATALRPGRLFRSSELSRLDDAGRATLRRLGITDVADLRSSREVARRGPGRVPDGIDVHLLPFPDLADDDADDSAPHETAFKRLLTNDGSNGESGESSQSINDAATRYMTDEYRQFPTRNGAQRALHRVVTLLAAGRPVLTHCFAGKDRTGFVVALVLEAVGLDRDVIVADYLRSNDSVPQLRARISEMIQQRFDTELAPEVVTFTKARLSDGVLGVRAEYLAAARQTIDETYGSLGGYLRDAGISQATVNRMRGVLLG

For the molecule `C#CCOc1c(C(=O)O)cc2cc(Cl)cc(OCC#C)c2c1Cl` [Compound L5], the half-maximal inhibitory concentration (IC50) came out at 75 µM.
